The target of the experiment is T1, Fatty-acid amide hydrolase 1 [30-579] (Rattus norvegicus, UniProt P97612).
T1 construct: 30-579
T1 sequence (P97612 whole entry): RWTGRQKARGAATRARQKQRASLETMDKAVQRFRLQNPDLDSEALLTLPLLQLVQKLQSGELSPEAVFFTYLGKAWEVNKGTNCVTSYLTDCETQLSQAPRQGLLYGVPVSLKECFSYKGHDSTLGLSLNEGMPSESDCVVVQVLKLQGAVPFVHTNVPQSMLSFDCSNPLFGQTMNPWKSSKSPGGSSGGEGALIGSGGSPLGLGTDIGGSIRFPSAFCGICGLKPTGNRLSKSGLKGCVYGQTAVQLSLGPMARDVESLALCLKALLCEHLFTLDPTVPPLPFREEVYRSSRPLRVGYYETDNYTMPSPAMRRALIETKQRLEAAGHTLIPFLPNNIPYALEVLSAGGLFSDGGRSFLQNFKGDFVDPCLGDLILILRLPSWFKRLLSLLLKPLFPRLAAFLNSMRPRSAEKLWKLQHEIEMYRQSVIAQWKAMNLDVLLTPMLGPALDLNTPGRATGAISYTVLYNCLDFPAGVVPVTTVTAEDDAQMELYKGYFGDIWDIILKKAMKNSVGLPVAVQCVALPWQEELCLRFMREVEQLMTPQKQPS
Nature of the experiment: FAAH Assay. Conditions: pH 7; 4 °C.

Experimental: Frozen (−80 °C) brains (minus cerebella) from adult Wistar or Sprague-Dawley rats were thawed and homogenized in 20 mM HEPES, 1 mM MgCl2, pH 7.0. and thereafter centrifuged at ~35000 × g for 20 min at 4°C. […] After a further centrifugation, the pellets were resuspended in 50 mMTris-HCl buffer, pH 7.4, containing 1 mM EDTA and 3 mM MgCl2 and frozen at −80°C in aliquots until used for assay. […] Reactions were stopped by placing the tubes on ice. Final assay concentrations of the solvents used for the compounds (ethanol or DMSO) were in the range 1-5%. Activated charcoal (80 μL + 320 μL 0.5 M HCl) was added and the samples were mixed and left at room temperature for about 30 min. Following centrifugation at 2500 rpm for 10 min, aliquots (200 μL) of the supernatants were analyzed for tritium content by liquid scintillation spectroscopy with quench correction. Blank values were obtained by the use of buffer rather than homogenate.

`Cc1cccc(NC(=O)CNC(=O)C(C)c2ccc(CC(C)C)cc2)n1` (configuration not stated) [2-(4-Isobutylphenyl)-N-(2-(6-methylpyridin-2-ylamino)-2-oxoethyl)propanamide (10)] came in with an IC50 of 150 µM.

For `CC(C)Cc1ccc(C(C)C(=O)NCC(=O)NCc2ccccn2)cc1` (configuration not stated) [2-(4-Isobutylphenyl)-N-(2-oxo-2-(pyridin-2-ylmethylamino)ethyl)propanamide (12)], the IC50 was determined as 90 µM.

Regarding `CC(C)Cc1ccc(C(C)C(=O)NCC(=O)NCc2cccnc2)cc1` (configuration not stated) [2-(4-Isobutylphenyl)-N-(2-oxo-2-(pyridin-3-ylmethylamino)ethyl)propanamide (13)], the IC50 came to 37 µM. This IC50 lies about 2.4-fold lower than the previous one.

The molecule `Cc1cccnc1NC(=O)CCNC(=O)C(C)c1ccc(CC(C)C)cc1` (configuration not stated) [2-(4-Isobutylphenyl)-N-(3-(3-methylpyridin-2-ylamino)-3-oxopropyl)propanamide (11)] showed an IC50 of 9.3 µM. `Cc1cccnc1NC(=O)C(C)c1ccc(CC(C)C)cc1` (configuration not stated) [2-(4-isobutylphenyl)-N-(3-methylpyridin-2-yl)propanamide]: the midpoint of inhibition, the IC50, lay at 0.65 µM. With `Cc1cccnc1OC(=O)C(C)c1ccc(CC(C)C)cc1` (configuration not stated) [3-Methylpyridin-2-yl 2-(4-isobutylphenyl)propanoate (3)] the figure was 115 µM; with `CC(=O)Nc1ccc(OC(=O)CNC(=O)C(C)c2ccc(CC(C)C)cc2)cc1` (configuration not stated) [4-Acetamidophenyl 2-(2-(4-isobutylphenyl)propanamido)acetate (8)], 1.5 µM.
